These results are taken from article PMC11785640, “Structure-based inhibition of acetylcholinesterase and butyrylcholinesterase with 2-Aryl-6-carboxamide benzoxazole derivatives: synthesis, enzymatic assay, and in silico studies” (Molecular Diversity, 2024).

Experiment [1] has as its system AChE. To be noted: cited from earlier work.
Another experiment deals with BChE (Equus caballus, UniProt P81908). Nature of the experiment: biochemical. The experiment is classed as biochemical. The following applies: for Ki: from Lineweaver-Burk graphs, mean ± SD, triplicate. On the procedure: (§1) These analogs were dissolved in DMSO at an initial concentration of 1 mg/mL. Around 1% of DMSO was present in the final reaction mixture. Acetylthiocholine iodide (AChI)/butyrylcholine iodide (BChI) were used as substrates for enzymatic reactions. […] The mixture was incubated at 20 °C for 20 min. Then, 50 µL of 5,5’-dithio-bis 2-nitro-benzoic acid (DTNB, 0.5 mM) and AChI/BChI were added and enzymatic reactions were initiated.
(§2) Lineweaver-Burk graphs were used for the calculation of Ki and the other parameters as described in prior studies. The Ki values were taken out from this graph. All analyses were conducted independently in triplicate, and result data are expressed as mean values ± SD [59].

For experiment [2], the target named is AChE (Electrophorus electricus, UniProt O42275). The experiment in a line: biochemical. The following applies: for Ki: from Lineweaver-Burk graphs, mean ± SD, triplicate; for Selectivity index (AChE/BChE): ratio AChE/BChE. The experiment is classed as biochemical. On the procedure:
as §1, §2

BChE, sequence (P81908 whole entry): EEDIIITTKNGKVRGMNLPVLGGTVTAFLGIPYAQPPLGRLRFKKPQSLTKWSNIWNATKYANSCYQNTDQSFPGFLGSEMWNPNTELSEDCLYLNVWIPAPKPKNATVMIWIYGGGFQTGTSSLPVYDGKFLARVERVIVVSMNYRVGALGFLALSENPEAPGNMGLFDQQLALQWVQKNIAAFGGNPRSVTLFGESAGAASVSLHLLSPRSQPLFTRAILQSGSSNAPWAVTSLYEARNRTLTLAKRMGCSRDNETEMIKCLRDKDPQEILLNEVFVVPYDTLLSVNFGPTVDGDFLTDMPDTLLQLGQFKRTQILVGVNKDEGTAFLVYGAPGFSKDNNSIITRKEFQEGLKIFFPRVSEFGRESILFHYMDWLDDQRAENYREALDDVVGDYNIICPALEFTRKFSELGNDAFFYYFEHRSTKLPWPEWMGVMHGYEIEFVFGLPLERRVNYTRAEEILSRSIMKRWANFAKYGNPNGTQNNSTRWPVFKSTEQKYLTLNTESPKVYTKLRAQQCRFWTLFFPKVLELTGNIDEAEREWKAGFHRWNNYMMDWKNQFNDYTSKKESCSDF
AChE (Electrophorus electricus, UniProt O42275), sequence (O42275 24-633): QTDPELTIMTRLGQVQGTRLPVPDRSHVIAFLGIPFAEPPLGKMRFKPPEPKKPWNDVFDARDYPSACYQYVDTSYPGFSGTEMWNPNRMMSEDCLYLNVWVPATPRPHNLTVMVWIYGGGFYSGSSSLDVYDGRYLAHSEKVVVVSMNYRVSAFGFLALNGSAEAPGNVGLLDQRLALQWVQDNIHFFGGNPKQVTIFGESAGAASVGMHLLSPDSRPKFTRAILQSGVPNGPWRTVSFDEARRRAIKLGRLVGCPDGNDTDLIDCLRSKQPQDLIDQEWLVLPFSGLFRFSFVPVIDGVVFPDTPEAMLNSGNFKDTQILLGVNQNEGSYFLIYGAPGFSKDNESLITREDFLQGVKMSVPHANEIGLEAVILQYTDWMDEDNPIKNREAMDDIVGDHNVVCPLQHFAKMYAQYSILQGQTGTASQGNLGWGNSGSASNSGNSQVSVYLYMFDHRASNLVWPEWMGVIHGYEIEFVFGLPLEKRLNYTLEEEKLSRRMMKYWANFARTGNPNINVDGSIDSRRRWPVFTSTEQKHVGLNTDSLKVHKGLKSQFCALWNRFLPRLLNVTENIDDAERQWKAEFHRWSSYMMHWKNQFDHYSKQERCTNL

In the case of `CN(C)C(=O)Oc1ccccc1-c1nc2ccccc2o1` [Compound 1], the “concentration at which it inhibits AChE” value in the experiment on AChE [1] is recorded as 58.2 nM.

In general, IC50 refers to the concentration that inhibits the measured activity by half. `CCN1CCN(CC(=O)Nc2ccc3nc(-c4ccc(C(C)(C)C)cc4)oc3c2)CC1` [Compound 3]: in the experiment with AChE [1], the IC50 was 3.67 nM.

For the molecule `S=c1oc2ccccc2n1CN1CCOCC1` [Compound 5, 3-morpholino methyl-2-thione benzoxazole], the IC50 in the experiment with AChE [1] was 44 nM.

For the molecule `CCN(CC)Cn1c(=S)oc2ccccc21` [Compound 6, 3-(diethylamino) methyl-2-thione benzoxazole], in the experiment with AChE [1], the IC50 is 38 nM.

Usually Ki stands for a measure of affinity in units of concentration, obtained from inhibition or displacement. On BChE, `O=C(c1ccc2nc(-c3ccccc3)oc2c1)N1CCCCC1` [Compound 11] yielded an IC50 of 61.2 nM and a Ki of 74.4 ± 16.9 nM. At AChE [2], the IC50 came to 21.4 nM, the Ki worked out at 18.6 ± 2.58 nM and the “Selectivity index (AChE/BChE)” value was determined as 0.25.

Consider `O=C(c1ccc2nc(-c3ccco3)oc2c1)N1CCOCC1` [Compound 42], for which, at BChE, half-maximal inhibition (IC50) was put at 58.7 nM and the affinity corresponds to a Ki of 48.6 ± 4.55 nM. For the same molecule, on AChE [2], inhibition was half-maximal at 21 nM (IC50), the Ki is 14.6 ± 3.01 nM and the “Selectivity index (AChE/BChE)” value amounted to 0.30.

On BChE, `CCCN(CCC)C(=O)c1ccc2nc(-c3ccc(-c4ccccc4)cc3)oc2c1` [Compound 15, 2-([1,1’-Biphenyl]-4-yl)-N,N-dipropylbenzo[d]oxazole-6-carboxamide] showed an IC50 of 113 nM and a Ki of 95.7 ± 7.32 nM. On AChE [2], half-maximal inhibition (IC50) required 40.7 nM, affinity was put at a Ki of 38.2 ± 0.66 nM and the “Selectivity index (AChE/BChE)” value amounted to 0.40.

At BChE, `O=C(c1ccc2nc(-c3cccs3)oc2c1)N1CCCC1` [Compound 46, Pyrrolidin-1-yl(2-(thiophen-2-yl)benzo[d]oxazol-6-yl)methanone] displayed an IC50 of 84.3 nM and a Ki of 87.5 ± 13.6 nM. In addition, on AChE [2], the IC50 turned out to be 31.5 nM, the Ki was 29.2 ± 0.64 nM and the “Selectivity index (AChE/BChE)” value came out at 0.33.

On BChE, `O=C(c1ccc2nc(-c3ccncc3)oc2c1)N1CCCCC1` [Compound 29, Piperidin-1-yl(2-(pyridin-4-yl)benzo[d]oxazol-6-yl)methanone] gave an IC50 of 54.1 nM and an inhibition constant Ki of 47.9 ± 8.42 nM. On AChE [2], this molecule yielded an IC50 of 28 nM and a Ki of 27.4 ± 2.53 nM.

On BChE, `O=C(c1ccc2nc(-c3ccncc3)oc2c1)N1CCCC1` [Compound 28] came in with an IC50 of 57.2 nM and a Ki of 52.9 ± 11.7 nM. On AChE [2], the half-maximal inhibitory concentration (IC50) was determined as 40.5 nM, the Ki was determined as 47.9 ± 4.7 nM and the “Selectivity index (AChE/BChE)” value is listed as 0.91.

In the case of `O=C(c1ccc2nc(-c3cccs3)oc2c1)N1CCOCC1` [Compound 48, Morpholino(2-(thiophen-2-yl)benzo[d]oxazol-6-yl)methanone], on BChE, the midpoint of inhibition, the IC50, lay at 33 nM and the affinity, expressed as Ki, was 22.7 ± 3.07 nM. In addition, at AChE [2], the IC50 came to 17.9 nM, the Ki is 10.6 ± 0.58 nM and the “Selectivity index (AChE/BChE)” value was determined as 0.47.

At BChE, `O=C(c1ccc2nc(-c3ccc[nH]3)oc2c1)N1CCCCC1` [Compound 35, (2-(1 H-pyrrol-2-yl)benzo[d]oxazol-6-yl)(piperidin-1-yl)methanone] came in with an IC50 of 49.2 nM and a Ki of 44.5 ± 7.43 nM. In addition, at AChE [2], the midpoint of inhibition, the IC50, lay at 19 nM; affinity was put at a Ki of 12.3 ± 1.28 nM; the “Selectivity index (AChE/BChE)” value turned out to be 0.27.

At BChE, `CN(C)C(=O)c1ccc2nc(-c3ccc(-c4ccccc4)cc3)oc2c1` [Compound 13, 2-([1,1’-Biphenyl]-4-yl)-N,N-dimethylbenzo[d]oxazole-6-carboxamide] gave an IC50 of 63.5 nM and an inhibitory constant (Ki) of 65.4 ± 14.1 nM. At AChE [2], the IC50 amounted to 33.2 nM; the affinity, expressed as Ki, was 29.8 ± 1.02 nM; the “Selectivity index (AChE/BChE)” value is 0.46.

Consider `O=C(c1ccc2nc(-c3cccc4ccccc34)oc2c1)N1CCOCC1` [Compound 24, Morpholino(2-(naphthalen-1-yl)benzo[d]oxazol-6-yl)methanone], for which, on BChE, the IC50 was determined as 83.8 nM and the Ki is 50.7 ± 14 nM. For the same molecule, on AChE [2], the IC50 stood at 50.9 nM, the Ki was found to be 45.7 ± 1.65 nM and the “Selectivity index (AChE/BChE)” value worked out at 0.90.

On BChE, `CCN(CC)C(=O)c1ccc2nc(-c3ccc[nH]3)oc2c1` [Compound 32, N,N-diethyl-2-(1 H-pyrrol-2-yl)benzo[d]oxazole-6-carboxamide] displayed an IC50 of 30.1 nM and a Ki of 23 ± 1.52 nM. For the same molecule, on AChE [2], the IC50 amounted to 41.7 nM, the Ki came to 47.5 ± 9.8 nM and the “Selectivity index (AChE/BChE)” value turned out to be 2.07.

For the molecule `O=C(c1ccc2nc(-c3ccccc3)oc2c1)N1CCCC1` [Compound 10], on BChE, the IC50 amounted to 51.4 nM and the Ki was determined as 36.6 ± 11 nM. On AChE [2], the IC50 is 35.7 nM, the affinity corresponds to a Ki of 46.5 ± 6.59 nM and the “Selectivity index (AChE/BChE)” value is on record as 1.27.

Consider `O=C(c1ccc2nc(-c3ccc[nH]3)oc2c1)N1CCOCC1` [Compound 36, (2-(1 H-pyrrol-2-yl)benzo[d]oxazol-6-yl)(morpholino)methanone], for which, on BChE, half-maximal inhibition (IC50) was put at 25.4 nM; the “type of inhibition, BChE” value is recorded as “mixed-type”; the Ki was 20.3 ± 1.56 nM. Further, on AChE [2], the IC50 was 12.6 nM; the “type of inhibition, AChE” value was “mixed-type”; the affinity corresponds to a Ki of 7.74 ± 0.75 nM; the “Selectivity index (AChE/BChE)” value is 0.38.

On BChE, `CCCN(CCC)C(=O)c1ccc2nc(-c3ccccc3)oc2c1` [Compound 9, 2-Phenyl-N,Ndipropylbenzo[d]oxazole-6-carboxamide] gave a 50% inhibitory concentration (IC50) of 116 nM and a Ki of 111 ± 4.67 nM. In addition, on AChE [2], the IC50 is 48.8 nM, the Ki was 59.4 ± 3.69 nM and the “Selectivity index (AChE/BChE)” value is recorded as 0.53.

On BChE, `O=C(c1ccc2nc(-c3ccco3)oc2c1)N1CCCCC1` [Compound 41] gave an IC50 of 80.1 nM and an inhibitory constant (Ki) of 75.5 ± 18.4 nM. Further, at AChE [2], it took 25.3 nM to reach half-maximal inhibition (IC50), affinity was put at a Ki of 30.7 ± 6.03 nM and the “Selectivity index (AChE/BChE)” value is reported as 0.41.

Regarding `Cc1ccc(CC(=O)Nc2ccc3nc(-c4ccccc4)oc3c2)cc1` [Compound 4], in the experiment on AChE [1], the IC50 is 38.4 nM.

At BChE, `CN(C)C(=O)c1ccc2nc(-c3ccncc3)oc2c1` [Compound 25, N,Ndimethyl-2-(pyridin-4-yl)benzo[d]oxazole-6-carboxamide] gave an IC50 of 93.6 nM and a Ki of 66.4 ± 13.6 nM. At AChE [2], the midpoint of inhibition, the IC50, lay at 54.7 nM; the Ki was found to be 85.3 ± 11.2 nM; the “Selectivity index (AChE/BChE)” value amounted to 1.28.

With `CCCN(CCC)C(=O)c1ccc2nc(-c3ccc[nH]3)oc2c1` [Compound 33, N,N-dipropyl-2-(1 H-pyrrol-2-yl)benzo[d]oxazole-6-carboxamide], at BChE, the IC50 stood at 55.5 nM and affinity was put at a Ki of 38.5 ± 8.43 nM. On AChE [2], the IC50 was found to be 40.2 nM, affinity was put at a Ki of 26.1 ± 3.35 nM and the “Selectivity index (AChE/BChE)” value amounted to 0.68.

Regarding `CCN(CC)C(=O)c1ccc2nc(-c3ccco3)oc2c1` [Compound 38, N,N-diethyl-2-(furan-2-yl)benzo[d]oxazole-6-carboxamide], on BChE, inhibition was half-maximal at 70.4 nM (IC50) and the affinity, expressed as Ki, was 59.4 ± 8.01 nM. For the same molecule, at AChE [2], inhibition was half-maximal at 52.8 nM (IC50), the Ki came to 41.2 ± 7.41 nM and the “Selectivity index (AChE/BChE)” value is 0.69.

At BChE, `O=C(c1ccc2nc(-c3ccc(-c4ccccc4)cc3)oc2c1)N1CCOCC1` [Compound 18, (2-([1,1’-Biphenyl]-4-yl)benzo[d]oxazol-6-yl)(morpholino)methanone] returned an IC50 of 65.1 nM and a Ki of 56.7 ± 1.57 nM. For the same molecule, at AChE [2], the IC50 was found to be 21.3 nM, the Ki is 20.9 ± 4.22 nM and the “Selectivity index (AChE/BChE)” value is listed as 0.37.

For `CCCN(CCC)C(=O)c1ccc2nc(-c3ccncc3)oc2c1` [Compound 27, N,Ndipropyl-2-(pyridin-4-yl)benzo[d]oxazole-6-carboxamide], on BChE, the half-inhibitory concentration (IC50) turned out to be 87.1 nM and affinity was put at a Ki of 69.7 ± 4.1 nM. On AChE [2], the IC50 is 49.5 nM, affinity was put at a Ki of 50 ± 5.13 nM and the “Selectivity index (AChE/BChE)” value turned out to be 0.72.

As for `O=C(c1ccc2nc(-c3ccncc3)oc2c1)N1CCOCC1` [Compound 30, Morpholino(2-(pyridin-4-yl)benzo[d]oxazol-6-yl)methanone], on BChE, the concentration for half-maximal inhibition (IC50) is 49.7 nM and the Ki turned out to be 45.4 ± 3.04 nM. Besides, on AChE [2], the IC50 turned out to be 24.3 nM, the Ki was 18.3 ± 4.37 nM and the “Selectivity index (AChE/BChE)” value was 0.40.
